In patent US10383844B2, “Methods for treating pulmonary fibrosis using chromenone derivatives” (College of Medicine Pochon Cha University Industry—Academic …, priority 2017, dated 2019):

Assays:
L132 cells [1] = experiment: Degree of radiation-induced EMT in L132 cells (western blots); assay type: cell-based; details: L132, 0.1 μM, 1 hour later radiation 5 Gy, 48 hours, FIG. 3(B)
Protocol: (§1) For the experiment, L132 cells were cultured at 37° C. in a 5% CO2 incubator by using an RPMI 1640 (RPMI, GIBCO-Invitrogen, Paisley, Scotland, UK) medium containing 10% FBS and 1× Antibiotic-Antimycotic (GIBCO-Invitrogen, Paisley, Scotland, UK).
To carry out the western blots, the treated cells were respectively washed twice with 1×PBS (0.14 M NaCl, 2.68 mM KCl, 10 mM Na2HPO4, 1.83 mM KH2PO4), after which the resulting cells were dissolved in a protein lysis buffer (100 mM Tris-HCl (pH 7.5), 50 mM NaCl, 5 mM EDTA (pH 8.0), 0.5% NP-40, 0.5% Sodium deoxycholate, 50 mM β-glycerophosphate, 0.1 mM Na3VO4, 50 mM NaF). A cell suspension was centrifuged at 13000 rpm for 30 minutes, after which only a supernatant thereof was taken out, such that 1% BSA solution was injected by 8, 6, 4, 2 and 0 μL into Protein Dye 1 mL as a standard by using a Bradford assay and 2 μL of the supernatant was added thereinto. The resulting solution was divided by 200 μL into each of a 96-well plate, after which the resulting plate was put into an ELISA reader to measure an optical observance thereof at an wavelength of 595 nm, such that a 6× sample buffer (0.35 M Tris (pH 6.8), 3% glycerol, 1% Sodium Dodecyl Sulfate, 6 mM Dithiothreitol) was injected to make a sample containing the same amount of protein. Then, the resulting sample was soaked in 100° C. water and boiled for 5 minutes and the same amount of protein was analyzed by using SDS-PAGE. A primary antibody used for the western blots was anti-HSP27 and β-actin (Santacruz, sc-13132 and sc-47778), and also anti-E-cadherin (BD, #610181), anti-Vimentin (BD, #550513), anti-Fibronectin (BD, #610077), anti-snail (Cell signaling, #3895S), anti-alpha-smooth muscle actin (Sigma, A5228), and anti-Zo-1 (Life technologies, #402200) were used. A secondary antibody used was Goat anti rabbit and Goat anti mouse (Santacruz, sc-2004 and sc-2005). […]

L132 cells [2] = experiment: Degree of EMT induced by TGF-beta in L132 cells (western blots); assay type: cell-based; details: L132, 0.1 μM, 1 hour later TGF-beta 5 ng/mL for 48 hours, FIG. 3(A)
Protocol: as §1
To carry out the western blots, the treated cells were respectively washed twice with 1×PBS (0.14 M NaCl, 2.68 mM KCl, 10 mM Na2HPO4, 1.83 mM KH2PO4), after which the resulting cells were dissolved in a protein lysis buffer (100 mM Tris-HCl (pH 7.5), 50 mM NaCl, 5 mM EDTA (pH 8.0), 0.5% NP-40, 0.5% Sodium deoxycholate, 50 mM β-glycerophosphate, 0.1 mM Na3VO4, 50 mM NaF). A cell suspension was centrifuged at 13000 rpm for 30 minutes, after which only a supernatant thereof was taken out, such that 1% BSA solution was injected by 8, 6, 4, 2 and 0 μL into Protein Dye 1 mL as a standard by using a Bradford assay and 2 μL of the supernatant was added thereinto. The resulting solution was divided by 200 μL into each of a 96-well plate, after which the resulting plate was put into an ELISA reader to measure an optical observance thereof at an wavelength of 595 nm, such that a 6× sample buffer (0.35 M Tris (pH 6.8), 3% glycerol, 1% Sodium Dodecyl Sulfate, 6 mM Dithiothreitol) was injected to make a sample containing the same amount of protein. Then, the resulting sample was soaked in 100° C. water and boiled for 5 minutes and the same amount of protein was analyzed by using SDS-PAGE. A primary antibody used for the western blots was anti-HSP27 and β-actin (Santacruz, sc-13132 and sc-47778), and also anti-E-cadherin (BD, #610181), anti-Vimentin (BD, #550513), anti-Fibronectin (BD, #610077), anti-snail (Cell signaling, #3895S), anti-alpha-smooth muscle actin (Sigma, A5228), and anti-Zo-1 (Life technologies, #402200) were used. A secondary antibody used was Goat anti rabbit and Goat anti mouse (Santacruz, sc-2004 and sc-2005).
To identify a degree of EMT according to a production of altered HSP27 dimers in cells, L132, a normal lung cell, was treated with Compound 1 of the present invention at a 0.1 μM concentration, and in 1 hour later the cell was treated with TGF-beta at a 5 ng/mL concentration for 48 hours. Then, a cell culture and western blots were performed in the same method as the above Experimental Example 1.

[3] = test system: radiation-induced pulmonary fibrosis; experiment: Small animal model of radiation-induced pulmonary fibrosis (local lung irradiation); assay type: in vivo; details: C57BL/6 male mouse, left lung 75 Gy, 13.6 mg/kg intraperitoneally three times a week, FIG. 4(B)
Protocol: To identify an anti-pulmonary fibrosis effect according to a production of HSP27 dimers in a small animal model on lung side effects with clinically analogous irradiation, the small animal model was exposed to a radiation dose in a range of high dose clinical radiotherapy to induce a pulmonary fibrosis process.
As shown in FIG. 4(A), a 10 week-old C57BL/6 male mouse was anesthetized with an anesthetic mixture of 30 mg/kg Zoletil and 10 mg/kg Rompun, after which a left lung of the mouse was exposed to a high dose radiation of 75 Gy in a 3 mm range by using X-Rad 320 (Precision, North Branford, Conn., USA). Then, Compound 1 of the present invention was intraperitoneally administered to the mouse at a 13.6 mg/kg concentration three times a week. During its sacrifice, the mouse was anesthetized, after which 10% formalin was injected into the anesthetized mouse through an airway thereof to fix its lung, such that a tissue sample was prepared by using a paraffin embedding.
An amount of collagen was histologically identified through Masson's trichrome dyeing to compare degrees of pulmonary fibrosis with each other.

melting point [°C] | Compound | expression of E-cadherin (L132 cells [1]) | expression of Twist (marker of mesenchymal cells) (L132 cells [1]) | expression of Zo-1 (L132 cells [1]) | altered HSP dimers (L132 cells [2]) | expression of E-cadherin (marker of epithelial cells) (L132 cells [2]) | expression of Fibronectin (marker of mesenchymal cells) (L132 cells [2]) | expression of Snail (marker of mesenchymal cells) (L132 cells [2]) | immune response lesion in locally irradiated lung region (naked eye) [3]
– | Cc1cc(=O)c2c(O)cc(OCC3CS3)cc2o1 (stereo not drawn) [Compound 1, 5-hydroxy-2-methyl-7-(thiirane-2-ylmethoxy)-4H-chromene-4-one] | mitigated a decrease | inhibited an increase | mitigated a decrease | increasing altered HSP dimers in a dose-dependent manner | mitigating a decrease | inhibiting an increase | inhibiting an increase | the lesion was recovered
95 to 96 | Cc1cc(=O)c2c(OCC3CS3)cc(OCC3CS3)cc2o1 (stereo not drawn) | – | – | – | – | – | – | – | –
